Reference: ChEMBL document CHEMBL1136112, “Novel inhibitors of procollagen C-proteinase. Part 2: glutamic acid hydroxamates” (Bioorg Med Chem Lett, 2003)

What was measured:
Interstitial collagenase = target: T1, Interstitial collagenase (Homo sapiens, UniProt P03956); experiment: Inhibition of matrix metalloprotease-1
T1 sequence (P03956 whole entry): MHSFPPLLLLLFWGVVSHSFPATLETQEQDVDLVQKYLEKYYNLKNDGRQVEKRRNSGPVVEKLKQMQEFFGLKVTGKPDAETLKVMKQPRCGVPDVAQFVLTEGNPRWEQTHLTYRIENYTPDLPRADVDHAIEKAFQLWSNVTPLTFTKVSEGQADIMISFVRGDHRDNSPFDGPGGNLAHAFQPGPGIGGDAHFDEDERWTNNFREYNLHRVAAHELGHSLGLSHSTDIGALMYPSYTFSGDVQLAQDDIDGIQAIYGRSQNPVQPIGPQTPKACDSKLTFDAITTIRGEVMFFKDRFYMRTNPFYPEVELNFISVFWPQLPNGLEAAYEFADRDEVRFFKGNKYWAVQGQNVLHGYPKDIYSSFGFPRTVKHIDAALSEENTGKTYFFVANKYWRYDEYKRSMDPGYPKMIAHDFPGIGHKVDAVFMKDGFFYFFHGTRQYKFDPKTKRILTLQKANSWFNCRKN

[1] = target: T2, Bone morphogenetic protein 1 (Homo sapiens, UniProt P13497); experiment: Ability to inhibit procollagen C-terminal proteinase (PCP) tested in vitro
T2 sequence (P13497 whole entry): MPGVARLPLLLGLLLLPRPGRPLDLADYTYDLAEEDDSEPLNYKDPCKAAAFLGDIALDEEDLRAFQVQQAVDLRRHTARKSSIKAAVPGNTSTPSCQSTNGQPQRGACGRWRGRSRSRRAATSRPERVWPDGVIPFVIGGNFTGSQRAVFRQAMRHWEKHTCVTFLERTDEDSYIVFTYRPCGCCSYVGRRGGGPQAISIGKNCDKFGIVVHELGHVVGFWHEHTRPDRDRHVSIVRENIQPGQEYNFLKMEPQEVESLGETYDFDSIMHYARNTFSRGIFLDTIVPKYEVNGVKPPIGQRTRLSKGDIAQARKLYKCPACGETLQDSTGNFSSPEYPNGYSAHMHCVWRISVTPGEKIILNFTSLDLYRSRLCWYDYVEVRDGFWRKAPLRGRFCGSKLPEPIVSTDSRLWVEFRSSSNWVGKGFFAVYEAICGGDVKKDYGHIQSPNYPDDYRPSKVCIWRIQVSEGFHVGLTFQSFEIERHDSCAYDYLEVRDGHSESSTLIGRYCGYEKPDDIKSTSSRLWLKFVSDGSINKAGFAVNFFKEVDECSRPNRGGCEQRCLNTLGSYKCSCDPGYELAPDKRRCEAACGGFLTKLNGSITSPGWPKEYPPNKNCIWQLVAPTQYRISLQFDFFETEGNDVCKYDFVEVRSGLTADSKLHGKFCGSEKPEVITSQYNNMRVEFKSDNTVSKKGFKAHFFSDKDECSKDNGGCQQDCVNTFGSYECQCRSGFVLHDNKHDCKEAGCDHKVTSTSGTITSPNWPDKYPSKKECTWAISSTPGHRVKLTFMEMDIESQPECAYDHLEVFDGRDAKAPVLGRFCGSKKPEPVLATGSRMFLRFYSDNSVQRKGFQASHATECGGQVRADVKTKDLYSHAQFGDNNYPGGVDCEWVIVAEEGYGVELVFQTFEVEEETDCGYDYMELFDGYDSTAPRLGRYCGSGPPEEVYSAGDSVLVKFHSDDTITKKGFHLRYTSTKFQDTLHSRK

Neutrophil collagenase = Neutrophil collagenase (Homo sapiens, UniProt P22894); experiment: Inhibition of MMP-8
Sequence of Neutrophil collagenase (P22894 whole entry): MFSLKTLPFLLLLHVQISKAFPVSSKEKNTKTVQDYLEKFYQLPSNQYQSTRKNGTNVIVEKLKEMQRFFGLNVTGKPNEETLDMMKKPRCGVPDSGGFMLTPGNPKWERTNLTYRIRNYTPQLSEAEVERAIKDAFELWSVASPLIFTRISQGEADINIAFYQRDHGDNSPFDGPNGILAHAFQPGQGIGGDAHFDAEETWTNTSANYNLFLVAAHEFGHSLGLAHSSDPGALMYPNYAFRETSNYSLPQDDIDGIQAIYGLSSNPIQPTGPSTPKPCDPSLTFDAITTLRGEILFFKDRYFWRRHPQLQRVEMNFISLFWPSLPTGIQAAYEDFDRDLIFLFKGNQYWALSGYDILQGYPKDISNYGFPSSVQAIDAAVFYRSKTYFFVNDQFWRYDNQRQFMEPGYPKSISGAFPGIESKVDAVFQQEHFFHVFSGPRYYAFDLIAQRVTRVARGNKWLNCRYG

Compound | Ki (Interstitial collagenase) [µM] | Ki [1] [nM] | Ki (Neutrophil collagenase) [µM]
COc1ccc(S(=O)(=O)N(Cc2ccc3c(c2)OCO3)[C@H](CCC(=O)N2CCN(C(=O)Nc3cccc(OC)c3)CC2)C(=O)NO)cc1 | – | 105 | –
COc1ccc(NC(=O)N2CCN(C(=O)CC[C@H](C(=O)NO)N(Cc3ccc4c(c3)OCO4)S(=O)(=O)c3ccc(OC)cc3)CC2)cc1 | – | 90 | –
COc1ccc(S(=O)(=O)N(Cc2ccc3c(c2)OCO3)[C@H](CCC(=O)N(CCC#N)Cc2ccccc2)C(=O)NO)cc1 | – | 33 | –
COc1ccc(S(=O)(=O)N(Cc2ccc3c(c2)OCO3)[C@H](CCC(=O)N2CCC(Cc3ccccc3)CC2)C(=O)NO)cc1 | – | 120 | –
COc1ccc(S(=O)(=O)N(Cc2ccc3c(c2)OCO3)[C@H](CCC(=O)N(Cc2ccccc2)Cc2ccccc2)C(=O)NO)cc1 | – | 400 | –
COc1ccc(S(=O)(=O)N(Cc2ccc3c(c2)OCO3)[C@H](CCC(=O)NCC2CC2)C(=O)NO)cc1 | – | 660 | –
COc1ccc(S(=O)(=O)N(Cc2ccc3c(c2)OCO3)[C@H](CCC(=O)N2CCN(c3ccccc3)CC2)C(=O)NO)cc1 | – | 340 | –
COC(=O)CC[C@H](C(=O)NO)N(Cc1ccc(OC)cc1)S(=O)(=O)c1ccc(OC)cc1 | – | 15000 | –
COc1ccc(S(=O)(=O)N(Cc2ccc3c(c2)OCO3)[C@H](CCC(=O)N2CCN(C)CC2)C(=O)NO)cc1 | – | 1000 | –
COc1ccc(S(=O)(=O)N(Cc2ccc3c(c2)OCO3)[C@H](CCC(=O)N2CCN(Cc3ccccn3)CC2)C(=O)NO)cc1 | – | > 1000 | –
COc1ccc(S(=O)(=O)N(Cc2ccc3c(c2)OCO3)[C@H](CCC(=O)N2CCN(Cc3cccnc3)CC2)C(=O)NO)cc1 | – | 620 | –
CCN(CC)C(=O)CC[C@H](C(=O)NO)N(Cc1ccc2c(c1)OCO2)S(=O)(=O)c1ccc(OC)cc1 | – | 1300 | –
COC(=O)CC[C@H](C(=O)NO)N(Cc1ccc(C(F)(F)F)cc1)S(=O)(=O)c1ccc(OC)cc1 | – | > 40000 | –
COc1ccc(S(=O)(=O)N(Cc2ccc3c(c2)OCO3)[C@H](CCC(=O)NCc2ccc(-c3ccccc3)cc2)C(=O)NO)cc1 | – | 11 | –
COc1ccc(S(=O)(=O)N(Cc2ccc3c(c2)OCO3)[C@H](CCC(=O)N2CCN(C(C)=O)CC2)C(=O)NO)cc1 | 0.12 | 200 | 0.009
COc1ccc(S(=O)(=O)N(Cc2ccc3c(c2)OCO3)[C@H](CCC(=O)NCc2ccccn2)C(=O)NO)cc1 | – | 530 | –
COC(=O)CC[C@H](C(=O)NO)N(Cc1ccc(Br)cc1)S(=O)(=O)c1ccc(OC)cc1 | – | > 40000 | –
COc1ccc(S(=O)(=O)N(Cc2ccc3c(c2)OCO3)[C@H](CCC(=O)N2CCN(C(=O)c3ccco3)CC2)C(=O)NO)cc1 | – | 40 | –
COc1ccc(S(=O)(=O)N(Cc2ccc3c(c2)OCO3)[C@H](CCC(=O)N2CCN(Cc3ccncc3)CC2)C(=O)NO)cc1 | – | > 1000 | –
COc1ccc(S(=O)(=O)N(Cc2ccc3c(c2)OCO3)[C@H](CCC(=O)NCCC(C)C)C(=O)NO)cc1 | – | 20 | –
COc1ccc(S(=O)(=O)N(Cc2ccc3c(c2)OCO3)[C@H](CCC(=O)N2CCOCC2)C(=O)NO)cc1 | – | 190 | –
COc1ccc(S(=O)(=O)N(Cc2ccc3c(c2)OCO3)[C@H](CCC(=O)NCC2CCCCC2)C(=O)NO)cc1 | – | 410 | –
CCOC(=O)N1CCN(C(=O)CC[C@H](C(=O)NO)N(Cc2ccc3c(c2)OCO3)S(=O)(=O)c2ccc(OC)cc2)CC1 | 0.09 | 64 | 0.006
COC(=O)CC[C@H](C(=O)NO)N(Cc1ccc2c(c1)OCO2)S(=O)(=O)c1ccc(OC)cc1 | – | 300 | –

Further lines, results first:

Ki (Interstitial collagenase) [µM] | Ki [1] [nM] | Ki (Neutrophil collagenase) [µM] | Compound
32 | 43 | 30 | CCOC(=O)N1CCN(C(=O)CC[C@H](C(=O)NO)N(Cc2ccc3c(c2)OCO3)S(=O)(=O)c2c(C)cc(OC)c(C)c2C)CC1
– | 210 | – | COc1ccc(S(=O)(=O)N(Cc2ccc3c(c2)OCO3)[C@H](CCC(=O)N2CCN(c3ccccn3)CC2)C(=O)NO)cc1
> 40 | 100 | 35 | COc1cc(C)c(S(=O)(=O)N(Cc2ccc3c(c2)OCO3)[C@H](CCC(=O)N2CCN(C(=O)OCc3ccccc3)CC2)C(=O)NO)c(C)c1C
– | > 40000 | – | COC(=O)CC[C@H](C(=O)NO)N(Cc1ccc(C)c([N+](=O)[O-])c1)S(=O)(=O)c1ccc(OC)cc1
– | 35 | – | COc1ccc(S(=O)(=O)N(Cc2ccc3c(c2)OCO3)[C@H](CCC(=O)N2CCN(C(=O)c3ccccc3)CC2)C(=O)NO)cc1
– | 950 | – | COC(=O)C[C@H](C(=O)NO)N(Cc1ccc2c(c1)OCO2)S(=O)(=O)c1ccc(OC)cc1
> 40 | 110 | 13 | COc1cc(C)c(S(=O)(=O)N(Cc2ccc3c(c2)OCO3)[C@H](CCC(=O)N2CCN(c3ccccc3)CC2)C(=O)NO)c(C)c1C
– | 100 | – | COc1ccc(S(=O)(=O)N(Cc2ccc3c(c2)OCO3)[C@H](CCC(=O)N(CCc2ccccc2)Cc2ccccc2)C(=O)NO)cc1
– | 1200 | – | COc1ccc(S(=O)(=O)N(Cc2ccc3c(c2)OCO3)[C@H](CCC(=O)N2CCNCC2)C(=O)NO)cc1
– | 740 | – | COc1ccc(S(=O)(=O)N(Cc2ccc3c(c2)OCO3)[C@H](CCC(=O)N2CCN(Cc3ccccc3)CC2)C(=O)NO)cc1
37 | 63 | 7 | COc1cc(C)c(S(=O)(=O)N(Cc2ccc3c(c2)OCO3)[C@H](CCC(=O)N2CCN(C(C)=O)CC2)C(=O)NO)c(C)c1C
– | 280 | – | COc1ccc(S(=O)(=O)N(Cc2ccc3c(c2)OCO3)[C@H](CCC(=O)NCC(C)C)C(=O)NO)cc1
– | 330 | – | COc1ccc(S(=O)(=O)N(Cc2ccc3c(c2)OCO3)[C@H](CCC(=O)N(C)C)C(=O)NO)cc1
– | 1200 | – | CCNC(=O)CC[C@H](C(=O)NO)N(Cc1ccc2c(c1)OCO2)S(=O)(=O)c1ccc(OC)cc1
– | 98 | – | COc1ccc(S(=O)(=O)N(Cc2ccc3c(c2)OCO3)[C@H](CCC(=O)NCc2ccccc2)C(=O)NO)cc1
– | 260 | – | COc1ccc(S(=O)(=O)N(Cc2ccc3c(c2)OCO3)[C@H](CCC(=O)N2CCN(C(=O)OCc3ccccc3)CC2)C(=O)NO)cc1
– | 160 | – | COc1ccc(S(=O)(=O)N(Cc2ccc3c(c2)OCO3)[C@H](CCC(=O)NCc2cccnc2)C(=O)NO)cc1
– | 340 | – | COc1ccc(S(=O)(=O)N(Cc2ccc3c(c2)OCO3)[C@H](CCC(=O)N2CCN(S(C)(=O)=O)CC2)C(=O)NO)cc1
– | 480 | – | COc1ccc(S(=O)(=O)N(Cc2ccc3c(c2)OCO3)[C@H](CCC(=O)N(CCC#N)Cc2cccnc2)C(=O)NO)cc1
– | 1170 | – | COc1ccc(S(=O)(=O)N(Cc2ccc3c(c2)OCO3)[C@H](CCC(=O)NCc2ccncc2)C(=O)NO)cc1
